Results: US8133898B2, “Renin inhibitors” (Takeda Pharmaceutical Company Limited, priority 2008, dated 2012)

How the values were obtained:
Human DPP-IV = Human DPP-IV (Homo sapiens, UniProt P27487); experiment: in vitro enzymatic activity of inhibitors against DPP-IV; format: biochemical; conditions: AP-AFC substrate
Description: Solutions of test compounds in varying concentrations ([…]) were prepared in dimethyl sulfoxide (DMSO) and then diluted into assay buffer comprising: 20 mM Tris, pH 7.4; 20 mM KCl; and 0.1 mg/mL BSA. Human DPP-IV (0.1 nM final concentration) was added to the dilutions and pre-incubated for 10 minutes at ambient temperature before the reaction was initiated with A-P-7-amido-4-trifluoromethylcoumarin (AP-AFC; 10 μM final concentration). The total volume of the reaction mixture was 10-100 μL depending on assay formats used (384 or 96 well plates). The reaction was followed kinetically (excitation λ=400 nm; emission λ=505 nm) for 5-10 minutes or an end-point was measured after 10 minutes. Inhibition constants (IC50) were calculated from the enzyme progress curves using standard mathematical models.

Recombinant human renin = target: T1, Recombinant human renin (Homo sapiens, UniProt P00797); experiment: in vitro enzymatic activity of renin inhibitors (fluorescence); format: biochemical; conditions: fluorogenic peptide substrate
T1 construct: with trypsin, and isolate the active form (residues 67-406); made in house; host or cells: FreeStyle 293-F cells (transient expression of pcDNA3.1(+)/hREN)
T1 sequence (P00797 67-406): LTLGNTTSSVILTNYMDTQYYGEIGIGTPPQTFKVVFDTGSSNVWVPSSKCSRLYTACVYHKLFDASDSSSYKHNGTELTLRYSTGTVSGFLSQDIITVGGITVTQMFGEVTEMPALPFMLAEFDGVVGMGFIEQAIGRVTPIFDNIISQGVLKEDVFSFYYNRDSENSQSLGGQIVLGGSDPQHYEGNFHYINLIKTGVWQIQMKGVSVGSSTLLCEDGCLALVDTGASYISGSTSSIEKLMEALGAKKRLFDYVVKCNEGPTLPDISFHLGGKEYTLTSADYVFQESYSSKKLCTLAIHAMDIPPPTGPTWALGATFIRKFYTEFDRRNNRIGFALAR
Text: Test compounds in varying concentrations may be reacted with recombinant human renin in the presence of substrate, e.g., QXL520-γ-Abu-Ile-His-Pro-Phe-His-Leu-Val-Ile-His-Thr-Lys (HiLyteFluo488)-Arg-OH (Anaspec, San Jose, Calif.). The reaction can be followed kinetically using fluorescence (excitation λ=485 nm; emission λ=538 nm). Inhibition constants (IC50) may be calculated by non-linear curve fitting of the compound concentrations and fluorescence intensities to the standard IC50 equation.
Solutions of test compounds in varying concentrations (≦2 mM final concentration) are prepared in dimethyl sulfoxide (DMSO) and then diluted into assay buffer comprising 50 mM Hepes, 1 mM EDTA, 1 mM DTT, 0.1 mg/ml BSA, 0.01% Brij35, pH 7.4. Alternatively, the assay can be performed with a high BSA concentration, wherein the buffer contains an additional 2% BSA.
Recombinant human renin (3 nM final concentration) is added to the dilutions and pre-incubated with the compounds for 10 minutes at 37° C. As described in Examples A-C above, human renin can be obtained by expressing preprorenin (residue 1-406) in mammalian cells, treating the prorenin (residues 24-406) contained in the culture supernatant with trypsin, and isolate the active form (residues 67-406). After pre-incubation, the reaction is initiated with 1 μM of substrate QXL520-γ-Abu-Ile-His-Pro-Phe-His-Leu-Val-Ile-His-Thr-Lys (HiLyteFluo488)-Arg-OH (Anaspec, San Jose, Calif.). The final DMSO in the assay is 5%. The total volume of the reaction mixture is 20 μL, which can be placed on Greiner 384-well small volume plates.
Renin activity may be determined via fluorescence (excitation λ=485 nm; emission λ=538 nm), e.g., on a Molecular Devices SPECTROmax GEMINI XPS. The fluorescence intensity is determined upon the addition of substrate and determined again after incubation at 37° C. for one hour. The fluorescence intensity of a blank (no inhibition) using vehicle alone is also determined. Renin activity is linearly proportional to the change in fluorescence observed (final—initial).
The percent inhibition of renin at a given compound concentration is defined as: 100%×[1−(Fcompound/Fblank)] where Fcompound is the observed fluorescence at a given concentration of test compound and Fblank is the observed fluorescence in the presence of vehicle alone.
The pIC50 value (negative log of the molar concentration of the compound that produces 50% inhibition) of a test compound is calculated by non-linear least squares curve fitting of the equation: Percent Inhibition=100%/(1+(10−pIC50/10 log [I])) to percent inhibition versus compound concentration. The 50% inhibitory concentration (IC50) of a test compound is calculated by raising 10 to the negative pIC50 (10-pIC50).

Sequence of Human DPP-IV (P27487 whole entry): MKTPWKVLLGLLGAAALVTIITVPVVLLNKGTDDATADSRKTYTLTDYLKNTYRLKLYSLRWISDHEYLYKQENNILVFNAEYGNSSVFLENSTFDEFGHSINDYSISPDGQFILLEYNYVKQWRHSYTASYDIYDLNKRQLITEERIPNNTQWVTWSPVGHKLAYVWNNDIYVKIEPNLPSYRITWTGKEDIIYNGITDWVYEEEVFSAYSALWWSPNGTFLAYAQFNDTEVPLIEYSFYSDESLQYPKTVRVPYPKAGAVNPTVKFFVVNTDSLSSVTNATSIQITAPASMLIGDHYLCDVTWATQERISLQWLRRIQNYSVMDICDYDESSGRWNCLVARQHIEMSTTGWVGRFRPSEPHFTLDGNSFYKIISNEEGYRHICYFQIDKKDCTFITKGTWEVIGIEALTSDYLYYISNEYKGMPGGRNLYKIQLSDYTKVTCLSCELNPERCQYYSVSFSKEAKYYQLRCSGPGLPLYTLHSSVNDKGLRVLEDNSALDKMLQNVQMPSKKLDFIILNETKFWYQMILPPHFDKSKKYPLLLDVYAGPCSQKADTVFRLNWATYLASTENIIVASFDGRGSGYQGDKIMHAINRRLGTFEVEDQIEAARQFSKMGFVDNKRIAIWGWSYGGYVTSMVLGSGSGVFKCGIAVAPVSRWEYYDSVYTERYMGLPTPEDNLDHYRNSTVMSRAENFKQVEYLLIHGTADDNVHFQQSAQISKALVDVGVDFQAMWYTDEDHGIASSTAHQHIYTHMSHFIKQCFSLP

For CC(C)COc1ccccc1-c1c(CN)c(NCc2ccc3ccccc3c2)nc2c1c(=O)n(C)c(=O)n2C [Compound 77, 6-(aminomethyl)-5-(2-isobutoxyphenyl)-1,3-dimethyl-7-(naphthalen-2-ylmethylamino)pyrido[2,3-d]pyrimidine-2,4(1H,3H)-dione], the IC50 (Human DPP-IV) was over 100 µM and the IC50 (Recombinant human renin) was 1 to 10 µM.

Compound Cn1c(=O)c2c(-c3cccc(OCc4cncs4)c3)c(CN)c(NCc3ccc4ccccc4c3)nc2n(C)c1=O [Compound 79, 6-(aminomethyl)-1,3-dimethyl-7-(naphthalen-2-ylmethylamino)-5-(3-(thiazol-5-ylmethoxy)phenyl)pyrido[2,3-d]pyrimidine-2,4(1H,3H)-dione] has an IC50 (Human DPP-IV) of 10 to 100 µM and an IC50 (Recombinant human renin) of 1 to 10 µM.

Cn1c(=O)c2c(-c3cccc(O)c3)c(CN)c(NCc3ccc4ccccc4c3)nc2n(C)c1=O [Compound 80, 6-(aminomethyl)-5-(3-hydroxyphenyl)-1,3-dimethyl-7-(naphthalen-2-ylmethylamino)pyrido[2,3-d]pyrimidine-2,4(1H,3H)-dione] gave an IC50 (Human DPP-IV) of 10 to 100 µM and an IC50 (Recombinant human renin) of 1 to 10 µM.

For COc1ccc(F)cc1-c1c(CN)c(NCc2cccc(OCc3ccccc3)c2)nc2c1c(=O)n(C)c(=O)n2C [Compound 82, 6-(aminomethyl)-7-(3-(benzyloxy)benzylamino)-5-(5-fluoro-2-methoxyphenyl)-1,3-dimethylpyrido[2,3-d]pyrimidine-2,4(1H,3H)-dione], the IC50 (Human DPP-IV) was under 1 µM and the IC50 (Recombinant human renin) was 1 to 10 µM.

Compound COc1ccc(F)cc1-c1c(CN)c(NCc2cccc(OCC(C)C)c2)nc2c1c(=O)n(C)c(=O)n2C [Compound 83, 6-(aminomethyl)-5-(5-fluoro-2-methoxyphenyl)-7-(3-isobutoxybenzylamino)-1,3-dimethylpyrido[2,3-d]pyrimidine-2,4(1H,3H)-dione] has an IC50 (Human DPP-IV) of under 1 µM and an IC50 (Recombinant human renin) of 1 to 10 µM.

CCCOc1ccc(OCCC)c(CNc2nc3c(c(-c4ccc(Cl)cc4Cl)c2CN)c(=O)n(C)c(=O)n3C)c1 [Compound 84, 6-(aminomethyl)-5-(2,4-dichlorophenyl)-7-(2,5-dipropoxybenzylamino)-1,3-dimethylpyrido[2,3-d]pyrimidine-2,4(1H,3H)-dione] showed an IC50 (Human DPP-IV) of 1 to 10 µM and an IC50 (Recombinant human renin) of over 100 µM.

COc1cc(OC)cc(-c2c(CN)c(NCc3cccc(-n4cccc4)c3)nc3c2c(=O)n(C)c(=O)n3C)c1 [Compound 85, 7-(3-(1H-pyrrol-1-yl)benzylamino)-6-(aminomethyl)-5-(3,5-dimethoxyphenyl)-1,3-dimethylpyrido[2,3-d]pyrimidine-2,4(1H,3H)-dione] gave an IC50 (Human DPP-IV) of over 100 µM and an IC50 (Recombinant human renin) of 1 to 10 µM.

CCNCc1c(NCc2ccc3ccccc3c2)nc2c(c1-c1cc(OC)cc(OC)c1)c(=O)n(C)c(=O)n2C [Compound 86, 5-(3,5-dimethoxyphenyl)-6-((ethylamino)methyl)-1,3-dimethyl-7-(naphthalen-2-ylmethylamino)pyrido[2,3-d]pyrimidine-2,4(1H,3H)-dione] showed an IC50 (Human DPP-IV) of over 100 µM and an IC50 (Recombinant human renin) of 10 to 100 µM.

COc1ccc(F)cc1-c1c(CN)c(NCc2ccccc2C(F)(F)F)nc2c1c(=O)n(C)c(=O)n2C [Compound 87, 6-(Aminomethyl)-5-(5-fluoro-2-methoxyphenyl)-1,3-dimethyl-7-(2-(trifluoromethyl)benzylamino)pyrido[2,3-d]pyrimidine-2,4(1H,3H)-dione] was tested, and the IC50 (Human DPP-IV) was under 1 µM and the IC50 (Recombinant human renin) was 1 to 10 µM.

CC(C)COc1ccc(Cl)cc1-c1c(CN)c(NCc2ccc3ccccc3c2)nc2c1c(=O)n(C)c(=O)n2C [Compound 88, 6-(Aminomethyl)-5-(5-chloro-2-isobutoxyphenyl)-1,3-dimethyl-7-(naphthalen-2-ylmethylamino)pyrido[2,3-d]pyrimidine-2,4(1H,3H)-dione] showed an IC50 (Human DPP-IV) of 1 to 10 µM and an IC50 (Recombinant human renin) of 1 to 10 µM.

Work on Cn1c(=O)c2c(-c3cccc(OCc4cnc(Cl)s4)c3)c(CN)c(NCc3ccc4ccccc4c3)nc2n(C)c1=O [Compound 89, 6-(Aminomethyl)-5-(3-((2-chlorothiazol-5-yl)methoxy)phenyl)-1,3-dimethyl-7-(naphthalen-2-ylmethylamino)pyrido[2,3-d]pyrimidine-2,4(1H,3H)-dione] yielded an IC50 (Human DPP-IV) of 10 to 100 µM and an IC50 (Recombinant human renin) of 1 to 10 µM.

In the case of Cn1c(=O)c2c(-c3cccc(F)c3)c(CN)c(NCc3ccc4ccccc4c3)nc2n(C)c1=O [Compound 90, 6-(Aminomethyl)-5-(3-fluorophenyl)-1,3-dimethyl-7-(naphthalen-2-ylmethylamino)pyrido[2,3-d]pyrimidine-2,4(1H,3H)-dione], the IC50 (Human DPP-IV) is reported as 1 to 10 µM and the IC50 (Recombinant human renin) is reported as 1 to 10 µM.

Cn1c(=O)c2c(-c3cc(F)ccc3Br)c(CN)c(NC(Cc3ccccc3)c3ccccc3)nc2n(C)c1=O (stereo not shown) [Compound 91, 6-(Aminomethyl)-5-(2-bromo-5-fluorophenyl)-7-(1,2-diphenylethylamino)-1,3-dimethylpyrido[2,3-d]pyrimidine-2,4(1H,3H)-dione] gave an IC50 (Human DPP-IV) of under 1 µM and an IC50 (Recombinant human renin) of 1 to 10 µM.

COc1ccc(F)cc1-c1c(CN)c(NCCc2ccccc2)nc2c1c(=O)n(C)c(=O)n2C [Compound 93, 6-(Aminomethyl)-5-(5-fluoro-2-methoxyphenyl)-1,3-dimethyl-7-(phenethylamino)pyrido[2,3-d]pyrimidine-2,4(1H,3H)-dione] gave an IC50 (Human DPP-IV) of under 1 µM and an IC50 (Recombinant human renin) of 10 to 100 µM.
